System: hENT1
Format: cell-based, human
Conditions: PK15-ENT1 cells

SMILES: COc1ccc(-c2ccc3c(N4CCOC[C@@H]4C)nc(N4CCOC[C@@H]4C)nc3n2)cc1CO [AZD8055]
- effect of AZD8055 on activity of isomer 1a (AZD8055 (5 μM) combined with isomer 1a): negligible effect on the activity of isomer 1a

SMILES: CO[C@H]1C[C@@H]2CC[C@@H](C)[C@@](O)(O2)C(=O)C(=O)N2CCCC[C@H]2C(=O)O[C@H]([C@H](C)C[C@@H]2CC[C@@H](O)[C@H](OC)C2)CC(=O)[C@H](C)/C=C(\C)[C@@H](O)[C@@H](OC)C(=O)[C@H](C)C[C@H](C)/C=C/C=C/C=C/1C [Rapamycin]
- effect of rapamycin on potency of isomer 1a (rapamycin (5 μM) combined with isomer 1a): antagonizes isomer 1a inhibition of hENT1-mediated thymidine uptake

Source: article PMC8447900 (Chemical Science, 2021)
